According to patent US9359338B2, “Cyclopropanecarboxamido-substitute aromatic compounds as anti-tumor agents” (Crown Bioscience Inc. (Taiwan), priority 2012, dated 2016):

Test system: PLC-PRF-5 cells
Assay: Inhibition of proliferation of PLC-PRF-5 cells (ATPlite)
Format: cell-based
Settings: Homo sapiens, PLC-PRF-5, PLC-PRF-5 cells; read-out: PLC-PRF-5 cell proliferation IC50
From the text: Inhibitory Activity of Compounds to the Proliferation of PLC-PRF-5 Cells
• [experimental Method]: Use PerKinElmer's ATPlite™ Luminescence ATP Detection Assay System to evaluate the inhibitory activity of compounds to the proliferation of PLC-PRF-5 cells. • [Instruments]: ENVISION plate reader (PerKinElmer) and centrifuge (Thermo Scientific, Sorvall ST16R) • [material]: PLC-PRF-5 cells (ATCC), 96-well plate (Nunc, #165305), DMEM medium (Gibco, #11965-092), PBS (Invitrogen, #10010023), fetal bovine serum (Gibco, #16000044), DMSO (Sigma, #D2650), ATPlite™ Luminescence ATP Detection Assay System (PerkinElmer, #6016949), purified water (Millipore, type: Milli-Q). • [Protocol]: Grow PLC-PRF-5 cells in DMEM supplemented with 10% FBS. When the cells reach 80% confluency, collect cells by trypsinization and centrifugation at 800 rpm for 3 min. Resuspend cells with appropriate volume of medium and count cell numbers. Adjust cell concentration to 50000 cells/mL, and split 160 μL cell suspension per well into 96-well plates. Transfer the plates into cell culture incubator (37° C., 5% CO2) and incubate cells for 2 hrs. Prepare compound serial dilutions in culture medium with total 8 compound concentrations at 3-fold serial dilutions (the final top concentration starts from 30 μM). Dispense 40 μL of each test compound dilution into corresponding wells with DMSO at 0.3% final concentration. Continue incubating cells in cell culture incubator for additional 96 hrs at 37° C., 5% CO2. Discard culture medium, and wash cells once with PBS. Add 50 μL cell lysis buffer per well and shake plates for 5 min at room temperature to ensure complete lysis of cells. Then add 50 μL of substrate solution and shake plates for 1 min at room temperature. Allow the plates to incubate at room temperature for 5 min, followed by recording the luminescence signals using Envision, and subsequent data analysis. • [Samples]: Compounds in the examples and Sorafenib (positive control) • [Data analysis]: Use CBIS data analysis software to calculate IC50 values

Compound | IC50 [nM]
CC(F)(F)c1cccc(NC(=O)Nc2ccc(Oc3cc(NC(=O)C4CC4)ncn3)c(F)c2)c1 [Exe. 103] | 373
CC(F)(F)c1ccc(F)c(NC(=O)Nc2ccc(Oc3cc(NC(=O)C4CC4)ncn3)c(F)c2)c1 [Exe. 104] | 100
CC(F)(F)c1cc(NC(=O)Nc2ccc(Oc3cc(NC(=O)C4CC4)ncn3)c(F)c2)ccc1F [Exe. 106] | 850
Cc1cc(NC(=O)Nc2ccc(F)c(C(F)(F)F)c2)ccc1Oc1cc(NC(=O)C2CC2)ncn1 [Exe. 111] | 2630
Cc1cc(NC(=O)Nc2cccc(C(F)(F)F)c2)ccc1Oc1cc(NC(=O)C2CC2)ncn1 [Exe. 112] | 2000
Cc1cc(NC(=O)Nc2cccc(OC(F)(F)F)c2)ccc1Oc1cc(NC(=O)C2CC2)ncn1 [Exe. 113] | 781
Cc1cc(NC(=O)Nc2ccc(Cl)c(OC(F)(F)F)c2)ccc1Oc1cc(NC(=O)C2CC2)ncn1 [Exe. 114] | 4600
Cc1cc(NC(=O)Nc2cc(F)cc(C(C)(F)F)c2)ccc1Oc1cc(NC(=O)C2CC2)ncn1 [Exe. 115] | 1310
Cc1cc(NC(=O)Nc2ccc(Cl)c(C(C)(F)F)c2)ccc1Oc1cc(NC(=O)C2CC2)ncn1 [Exe. 117] | 2930
O=C(Nc1cccc(Oc2cc(NC(=O)C3CC3)ncn2)c1)Nc1ccc(F)c(C(F)(F)F)c1 [Exe. 119] | 18800
O=C(Nc1cccc(Oc2cc(NC(=O)C3CC3)ncn2)c1)Nc1cccc(C(F)(F)F)c1 [Exe. 120] | > 30000
O=C(Nc1cccc(Oc2cc(NC(=O)C3CC3)ncn2)c1)Nc1cccc(OC(F)(F)F)c1 [Exe. 121] | > 30000
CC(F)(F)c1cc(NC(=O)Nc2cccc(Oc3cc(NC(=O)C4CC4)ncn3)c2)ccc1Cl [Exe. 122] | 22000
CN(c1ccc(NC(=O)Nc2cccc(C(F)(F)F)c2)c(F)c1)c1cc(NC(=O)C2CC2)ncn1 [Exe. 123] | 8380
O=C(Nc1ccc(Oc2ccnc(NC(=O)C3CC3)c2)nc1)Nc1cc(N2CCC(F)CC2)cc(C(F)(F)F)c1 [Exe. 129] | 2260
CN1CCC(c2cc(NC(=O)Nc3ccc(Oc4ccnc(NC(=O)C5CC5)c4)cn3)cc(C(F)(F)F)c2)CC1 [Exe. 134] | 199
O=C(Nc1cccc(C(F)(F)F)c1)Nc1ccc(Oc2ccnc(NC(=O)C3CC3)c2)cn1 [Exe. 135] | 100

Test system: pERK in MDA-MB-231 cells
Assay: Inhibitory activity at pERK (In Cell Western, MDA-MB-231 cells)
Format: cell-based
Settings: Homo sapiens, MDA-MB-231, MDA-MB-231 cells; read-out: MDA-MB-231 pERK IC50
Method: Inhibitory Activity of Compounds at pERK
When the cells reach 80% confluency, collect cells by trypsinization and centrifugation at 800 rpm for 3 minutes. Resuspend cells with appropriate volume of medium and count cell numbers. Adjust cell concentration to 70000 cells/mL, and split 100 μL cell suspension per well into 96-well plates. Transfer the plates into cell culture incubator (37° C., 5% CO2) and incubate cells overnight. Discard the medium, wash with PBS once, Prepare compound serial dilutions in culture medium with total 8 compound concentrations at 3-fold serial dilutions (the final top concentration starts from 30 μM). Dispense 75 μL DMEM medium (with 0.1% BSA) and 25 μL of each test compound dilution into corresponding wells with DMSO at 0.3% final concentration. Continue incubating cells in cell culture incubator for additional 2 hrs at 37° C., 5% CO2. Discard culture medium, and wash cells once with PBS. Add 100 μL of 4% formaldehyde solution to each well and fix for 20 min. Discard the formaldehyde, then add 100 μL ice-cold 100% methanol at 4° C. for 20 min. Discard methanol, wash with PBS three times. Add to each well 100 μL of 2% BSA solution, seal for 30 min at room temperature. Discard the BSA solution, add to each well 50 μL of the 1st antibody solution (prepared with 2% BSA, 1:250 dilution), incubate at 4° C. overnight. Discard the 1^St antibody solution, wash with PBS four times. Add to each well […] the 2nd antibody solution (prepared with 1% BSA, 1:1000 dilution), incubate at room temperature for 1 hr. Discard the 2nd antibody solution, wash with PBS four times, add to each well 100 μL PI solution (1.5 μM), incubate at room temperature for 30 min. Use Acumen (TPP) to measure the fluorescence. • [Samples]: Compounds in the examples and sorafenib (positive control) • [Data Analysis]: Use CBIS data analysis software to calculate IC50 values

Compound | IC50 [nM]
CC(F)(F)c1cccc(NC(=O)Nc2ccc(Oc3cc(NC(=O)C4CC4)ncn3)c(F)c2)c1 [Exe. 103] | 300
CC(F)(F)c1ccc(F)c(NC(=O)Nc2ccc(Oc3cc(NC(=O)C4CC4)ncn3)c(F)c2)c1 [Exe. 104] | 252
CC(F)(F)c1cc(NC(=O)Nc2ccc(Oc3cc(NC(=O)C4CC4)ncn3)c(F)c2)ccc1F [Exe. 106] | 465
Cc1cc(NC(=O)Nc2cc(F)cc(C(C)(F)F)c2)ccc1Oc1cc(NC(=O)C2CC2)ncn1 [Exe. 115] | 300
O=C(Nc1cccc(Oc2cc(NC(=O)C3CC3)ncn2)c1)Nc1ccc(F)c(C(F)(F)F)c1 [Exe. 119] | 184
O=C(Nc1cccc(Oc2cc(NC(=O)C3CC3)ncn2)c1)Nc1cccc(C(F)(F)F)c1 [Exe. 120] | 617
O=C(Nc1cccc(Oc2cc(NC(=O)C3CC3)ncn2)c1)Nc1cccc(OC(F)(F)F)c1 [Exe. 121] | 252
CC(F)(F)c1cc(NC(=O)Nc2cccc(Oc3cc(NC(=O)C4CC4)ncn3)c2)ccc1Cl [Exe. 122] | 133
CN(c1ccc(NC(=O)Nc2cccc(C(F)(F)F)c2)c(F)c1)c1cc(NC(=O)C2CC2)ncn1 [Exe. 123] | 703
O=C(Nc1ccc(Oc2ccnc(NC(=O)C3CC3)c2)nc1)Nc1cc(N2CCC(F)CC2)cc(C(F)(F)F)c1 [Exe. 129] | 105
O=C(Nc1cccc(C(F)(F)F)c1)Nc1ccc(Oc2ccnc(NC(=O)C3CC3)c2)cn1 [Exe. 135] | 208

These reach a lower IC50. Values come first.

IC50 [nM] | Compound
85 | Cc1cc(NC(=O)Nc2cccc(C(F)(F)F)c2)ccc1Oc1cc(NC(=O)C2CC2)ncn1 [Exe. 112]
54 | Cc1cc(NC(=O)Nc2cccc(OC(F)(F)F)c2)ccc1Oc1cc(NC(=O)C2CC2)ncn1 [Exe. 113]
41 | Cc1cc(NC(=O)Nc2ccc(F)c(C(F)(F)F)c2)ccc1Oc1cc(NC(=O)C2CC2)ncn1 [Exe. 111]
37 | Cc1cc(NC(=O)Nc2ccc(Cl)c(OC(F)(F)F)c2)ccc1Oc1cc(NC(=O)C2CC2)ncn1 [Exe. 114]
33 | CN1CCC(c2cc(NC(=O)Nc3ccc(Oc4ccnc(NC(=O)C5CC5)c4)cn3)cc(C(F)(F)F)c2)CC1 [Exe. 134]
27 | Cc1cc(NC(=O)Nc2ccc(Cl)c(C(C)(F)F)c2)ccc1Oc1cc(NC(=O)C2CC2)ncn1 [Exe. 117]

Target: KDR kinase (790-1356 AA) (Homo sapiens (Human), UniProt P35968)
Assay: Inhibitory activity at KDR kinase (Lance Ultra Ulight-TK assay)
Format: biochemical
Settings: not given
Method: Inhibitory Activity of Compounds at KDR Kinase
• [Experimental method]: Use Lance@Ultra Ulight™-TK assay kit from PerKinElmer to evaluate the inhibitory activity of compounds at KDR kinase. • [Instrument]: PerKinElmer's ENVISION plate reader • [Materials]: Optiplate-384 well plate (PerKinElmer), kinase buffer (50 mM Hepes pH7.5, 0.25 mM EGTA, 2 mM DTT, 0.01% Tween 20, 10 mM Mg^2+, 0.5 mM Mn^2+), KDR kinase (790-1356 AA, Crown Bioscience), KDR kinase substrate (PerKinElmer catalogue # TRF0127-M), Lance@Eu-W1024-anti-phosphotyrosine (PT66) (PerKinElmer, catalogue #AD0068), ATP (Invitrogen), DMSO (Sigma, catalogue #34869), purified water (Millipore, type: Milli-Q). • [Study conditions]: Mix KDR (final concentration: 20 nM) and compound (final DMSO: 0.5%), pre-incubate for 20 min at 30° C.; then add ATP (final concentration: 90 μM) and the substrate (final concentration […]). React for 2 hrs at 30° C. After the reaction, add antibody and reaction for 60 min at 30° C. Read the plate (615 nm, 665 nm), calculate the ratio of the value at 665 nm vs 615 nm and analyze the data. • [Samples]: Compounds in the examples and Sorafenib (positive control) • [Data Analysis]: Use CBIS data analysis software to calculate IC50 values

KDR kinase (790-1356 AA), sequence (P35968 790-1356): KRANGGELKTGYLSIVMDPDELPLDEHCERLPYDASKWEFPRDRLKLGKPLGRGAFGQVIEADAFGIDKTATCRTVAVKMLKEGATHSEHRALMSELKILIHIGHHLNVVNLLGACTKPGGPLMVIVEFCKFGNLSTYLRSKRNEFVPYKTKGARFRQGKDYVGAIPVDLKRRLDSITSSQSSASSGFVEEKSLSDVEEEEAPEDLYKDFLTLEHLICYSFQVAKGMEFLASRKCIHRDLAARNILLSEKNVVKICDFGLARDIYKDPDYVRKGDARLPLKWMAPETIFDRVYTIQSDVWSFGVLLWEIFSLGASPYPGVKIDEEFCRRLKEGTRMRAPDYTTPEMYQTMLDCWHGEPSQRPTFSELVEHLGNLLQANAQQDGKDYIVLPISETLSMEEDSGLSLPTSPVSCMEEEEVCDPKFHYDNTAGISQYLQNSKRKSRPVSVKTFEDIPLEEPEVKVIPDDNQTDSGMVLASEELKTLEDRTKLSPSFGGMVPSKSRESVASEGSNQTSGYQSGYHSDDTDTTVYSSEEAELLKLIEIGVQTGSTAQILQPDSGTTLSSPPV

Compound | IC50 [nM]
CC(F)(F)c1cccc(NC(=O)Nc2ccc(Oc3cc(NC(=O)C4CC4)ncn3)c(F)c2)c1 [Exe. 103] | 12.4
CC(F)(F)c1ccc(F)c(NC(=O)Nc2ccc(Oc3cc(NC(=O)C4CC4)ncn3)c(F)c2)c1 [Exe. 104] | 10.2
CC(F)(F)c1cc(NC(=O)Nc2ccc(Oc3cc(NC(=O)C4CC4)ncn3)c(F)c2)ccc1F [Exe. 106] | 10.4
Cc1cc(NC(=O)Nc2cc(F)cc(C(C)(F)F)c2)ccc1Oc1cc(NC(=O)C2CC2)ncn1 [Exe. 115] | 9.5
O=C(Nc1cccc(Oc2cc(NC(=O)C3CC3)ncn2)c1)Nc1ccc(F)c(C(F)(F)F)c1 [Exe. 119] | 14.9
O=C(Nc1cccc(Oc2cc(NC(=O)C3CC3)ncn2)c1)Nc1cccc(C(F)(F)F)c1 [Exe. 120] | 12
O=C(Nc1cccc(Oc2cc(NC(=O)C3CC3)ncn2)c1)Nc1cccc(OC(F)(F)F)c1 [Exe. 121] | 11.5
CC(F)(F)c1cc(NC(=O)Nc2cccc(Oc3cc(NC(=O)C4CC4)ncn3)c2)ccc1Cl [Exe. 122] | 8.7
CN(c1ccc(NC(=O)Nc2cccc(C(F)(F)F)c2)c(F)c1)c1cc(NC(=O)C2CC2)ncn1 [Exe. 123] | 7.4
O=C(Nc1ccc(Oc2ccnc(NC(=O)C3CC3)c2)nc1)Nc1cc(N2CCC(F)CC2)cc(C(F)(F)F)c1 [Exe. 129] | 14.2
O=C(Nc1cccc(C(F)(F)F)c1)Nc1ccc(Oc2ccnc(NC(=O)C3CC3)c2)cn1 [Exe. 135] | 5.8

Now from value to molecule:

IC50 [nM] | Compound
14.5 | Cc1cc(NC(=O)Nc2cccc(C(F)(F)F)c2)ccc1Oc1cc(NC(=O)C2CC2)ncn1 [Exe. 112]
8.1 | Cc1cc(NC(=O)Nc2cccc(OC(F)(F)F)c2)ccc1Oc1cc(NC(=O)C2CC2)ncn1 [Exe. 113]
7 | Cc1cc(NC(=O)Nc2ccc(F)c(C(F)(F)F)c2)ccc1Oc1cc(NC(=O)C2CC2)ncn1 [Exe. 111]
9.8 | Cc1cc(NC(=O)Nc2ccc(Cl)c(OC(F)(F)F)c2)ccc1Oc1cc(NC(=O)C2CC2)ncn1 [Exe. 114]
7.8 | CN1CCC(c2cc(NC(=O)Nc3ccc(Oc4ccnc(NC(=O)C5CC5)c4)cn3)cc(C(F)(F)F)c2)CC1 [Exe. 134]
12 | Cc1cc(NC(=O)Nc2ccc(Cl)c(C(C)(F)F)c2)ccc1Oc1cc(NC(=O)C2CC2)ncn1 [Exe. 117]
